Consider 28 molecules from patent US20090318456A1, “SUBSTITUTED PTERIDINES FOR THE TREATMENT AND PREVENTION OF VIRAL INFECTIONS” (Gilead Sciences, Inc., priority 2006, published 2009).

Structures are written as SMILES. Where two headings read alike, the source gives them in different places. Bounds are passed on as bounds.

For one data set, the system named is HCV replicon. The experiment in a line: Anti-HCV replicon assay (EC50, luciferase). Type of data set: cell-based, Hepatitis C virus (HCV). As to the method:
(§1) The anti HCV activity of specifically 2,4,6-trisubstituted pteridine derivatives was tested in a human hepatoma Huh-7 cell line harbouring a HCV replicon. The assay comprised the following steps:
(§2) Step 1: compound preparation and serial dilution involved the following alternatives, depending upon the water solubility of pteridine derivative being tested: • 1. with respect to water soluble 2,4,6-trisubstituted pteridine derivatives, 500 μL of solution in cell media (DMEM, 10% FBS, P/S, L-Glutamine) was prepared with a concentration that is twice the concentration of the starting final serial dilution concentration. 150 μL of the solution was added to the pre-specified wells in column 1 of a 96-well cell culture plate (PerkinElmer, white plate, cat. #6005181, for EC50 assay; black plate, cat. #6005182 for CC50 assay). The rest of the plate, i.e. columns 2-12, was filled with 100 μL of cell media. The plate was then placed on a Precision 2000 Workstation in order to start serial dilution. Pteridine compounds were diluted three times each step from column 1 to column 10. Column 11 was used as a blank control (no pteridine compound added). • 2. With respect to poorly water soluble pteridine derivatives, DMSO was used as a solvent, and serial dilution was performed in 50% DMSO in water, in a 384-well plate. A solution containing the relevant compound at 100-fold the concentration of the starting final serial dilution concentration was prepared in 50% DMSO in water and added to the pre-specified wells in column 1 of a polypropylene 384-well plate. This plate was then placed on a Precision 2000 Workstation in order to start serial dilution. After serial dilution, 2 μL of the solution was transferred from the 384-well plate to a 96-well cell culture plate containing 100 μL of cell media on a Biomek FX Workstation. The DMSO concentration in the final assay condition was 0.5% after cells have been added to the plate and the total volume in each well was brought to 200 μL. Step 2: to each well of the serial dilution plate prepared in step 1, 100 μL of cell media containing 6000 suspended Huh-7 HCV replicon cells was added with a Multidrop workstation. Plates were incubated for 3 days at 37° C. with 5% CO2. Step 3: detection: • 1) with respect to the EC50 assay, the media in a 96-well cell culture plate was aspirated with a Biotek EL405 plate-washer. A volume of 200 μL of a solution containing a 1:1 mixture of a cell-lysis buffer (commercially available from Promega, Luciferase Cell Culture Lysis 5× Reagent, cat. #E1531) and a luciferase substrate solution (commercially available from Promega, Luciferase Assay, cat. # E4550) was added to each well of the plate with Multidrop. The plate was incubated for 30 minutes at room temperature before the luminescence signal was measured with a TopCount plate-reader. • 2) with respect to the CC50 assay, 100 μL of a pre-mixed CellTiter-Glo (commercially available from Promega, cat. # G7572) solution was added directly to the cell culture in each well of the plate and the luminescence signal was measured with a TopCount plate-reader after 10 minutes of incubation at room temperature.
(§3) Results are expressed by the following data: • the 50% effective concentration (EC50), i.e. the concentration that protects 50% of the cell monolayer from virus-induced cythopathic effect, and • the 50% cytostatic concentration (CC50), i.e. the concentration that results in 50% inhibition of cell growth.
A general note: Replicon systems follow genome replication, usually without infectious particles.

The nature of data set [1]: CC50 assay (CellTiter-Glo) in Huh-7 HCV replicon cells. Particulars: human. Type of data set: cell-based, human. As for the experimental part:
as §1, §2, §3
(In ATP-based viability assays light output follows the ATP content of the culture.)

A further data set deals with Huh-7 HCV replicon cells. Described as above. In kind it is cell-based, human. As to the method:
as §1, §2, §3

[2] abbreviates: Table 1, Huh-7 HCV replicon cells, 3 days, luciferase, read-out: EC50.
Where [3] appears, read: Table 3, Huh-7 HCV replicon cells, 3 days, luciferase, read-out: EC50.
[4] abbreviates: Hepatitis C virus, 72 h, Table 4, Huh-7 HCV replicon cells, 3 days, luciferase, read-out: EC50.

Consider `CC(C)Oc1nc(N)nc2ncc(-c3ccc(F)cc3)nc12` [2-amino-4-isopropoxy-6-(4-fluorophenyl)-pteridine], for which the EC50 (usually the concentration at which the effect is half-maximal) in the data set on HCV replicon (Hepatitis C virus, 72 h, Table 6, Huh-7 HCV replicon cells, 3 days, luciferase, read-out: EC50) is under 300 nM. In addition, the CC50 (as a rule, the concentration at which the toxic effect on the cells reaches its halfway point) at 3 days in data set [1] (Table 6) was over 20000 nM.
As for `COc1ccc(-c2cnc3nc(N)nc(N4CCN(Cc5ccccn5)CC4)c3n2)cc1OC` [Example 99], the EC50 at HCV replicon (setting [2]) is 300 to 1000 nM. The molecule also displayed a CC50 with Huh-7 HCV replicon cells (Table 1, 3 days) of 10000 to 20000 nM.
Taken in the same sequence, the figures for `COc1ccc(-c2cnc3nc(N)nc(N4CCN(CCC#N)CC4)c3n2)cc1OC` [Example 100] were under 300 nM and 10000 to 20000 nM.
Taken in the same sequence, the figures for `CCOCCN1CCN(c2nc(N)nc3ncc(-c4ccc(OC)c(OC)c4)nc23)CC1` [Example 104] were under 300 nM and over 20000 nM.
With `COc1ccc(-c2cnc3nc(N)nc(N4CCN(CC5CCCO5)CC4)c3n2)cc1OC` (centres unmarked) [Example 108], on HCV replicon (setting [2]), the EC50 is 300 to 1000 nM. Moreover, the CC50 with Huh-7 HCV replicon cells (Table 1, 3 days) is over 20000 nM.
Taken in the same sequence, the figures for `COc1ccc(-c2cnc3nc(N)nc(N4CCN(CC5OCCO5)CC4)c3n2)cc1OC` [Example 109] were 300 to 1000 nM and over 20000 nM.
Taken in the same sequence, the figures for `COc1ccc(-c2cnc3nc(N)nc(N4CCN(C(=O)NCc5ccccc5)CC4)c3n2)cc1OC` [Example 111] were under 300 nM and 10000 to 20000 nM.
The like results for `COc1ccc(-c2cnc3nc(N)nc(N4CCN(C(=O)NCc5ccc(F)cc5)CC4)c3n2)cc1OC` [Example 112] were, in that order, under 300 nM and under 10000 nM.
With `COc1ccc(-c2cnc3nc(N)nc(N4CCN(C(=O)Nc5ccc(F)c(Cl)c5)CC4)c3n2)cc1OC` [Example 113], the EC50 on HCV replicon (setting [2]) is under 300 nM. In the data set with Huh-7 HCV replicon cells (Table 1, 3 days), the CC50 was under 10000 nM.
Taken in the same sequence, the figures for `COc1ccc(-c2cnc3nc(N)nc(N4CCN(C(=O)Nc5cccs5)CC4)c3n2)cc1OC` [Example 114] were under 300 nM and under 10000 nM.
Taken in the same sequence, the figures for `COc1ccc(-c2cnc3nc(N)nc(N4CCN(C(=O)NCCc5cccs5)CC4)c3n2)cc1OC` [Example 115] were under 300 nM and under 10000 nM.
The like results for `CCCCNC(=O)N1CCN(c2nc(N)nc3ncc(-c4ccc(OC)c(OC)c4)nc23)CC1` [Example 118] were, in that order, under 300 nM and under 10000 nM.
In the case of `COc1ccc(-c2cnc3nc(N)nc(N4CCN(C(=O)N(C)c5ccccc5)CC4)c3n2)cc1OC` [Example 119], the EC50 at HCV replicon (setting [2]) is under 300 nM. The molecule further yielded a CC50 in the data set on Huh-7 HCV replicon cells (Table 1, 3 days) of under 10000 nM.
Taken in the same sequence, the figures for `CCN(C(=O)N1CCN(c2nc(N)nc3ncc(-c4ccc(OC)c(OC)c4)nc23)CC1)c1ccccc1` [Example 121] were under 300 nM and under 10000 nM.
Taken in the same sequence, the figures for `COc1ccc(-c2cnc3nc(N)nc(N4CCN(C(=O)Nc5cccc(Cl)c5)CC4)c3n2)cc1OC` [Example 122, 2-amino-4-(N-3-chloro-phenyl-carbamoyl-piperazin-1-yl)-6-(3,4-dimethoxyphenyl)pteridine] were under 300 nM and under 10000 nM.
Taken in the same sequence, the figures for `COc1ccc(-c2cnc3nc(N)nc(N4CCN(C(=O)Nc5cccc(C(F)(F)F)c5)CC4)c3n2)cc1OC` [Example 123, 2-amino-4-(N-3-trifluoromethyl-phenyl-carbamoyl-piperazin-1-yl)-6-(3,4-dimethoxyphenyl)pteridine] were under 300 nM and under 10000 nM.
On to `COc1ccc(-c2cnc3nc(N)nc(N4CCN(C(=O)Nc5ccc(Br)cc5)CC4)c3n2)cc1OC` [Example 124, 2-amino-4-(N-4-bromo-phenyl-carbamoyl-piperazin-1-yl)-6-(3,4-dimethoxyphenyl)pteridine], for which, at HCV replicon (setting [2]), the EC50 is under 300 nM. The same molecule gave a CC50 in the data set on Huh-7 HCV replicon cells (Table 1, 3 days) of under 10000 nM.
As for `CCOc1nc(N)nc2ncc(-c3ccc(F)cc3)nc12` [Example 131, 2-amino-4-ethoxy-6-(4-fluorophenyl)-pteridine], in the data set with HCV replicon (Hepatitis C virus, 72 h, Table 2, Huh-7 HCV replicon cells, 3 days, luciferase, read-out: EC50), the EC50 was under 300 nM. In addition, the CC50 at 3 days in data set [1] (Table 2) was over 20000 nM.
For `CCC(C)Nc1nc(N)nc2ncc(-c3ccc(OC)c(OC)c3)nc12` (centres unmarked) [Example 230], the EC50 on HCV replicon (setting [3]) lay within 300 to 1000 nM. This molecule showed a CC50 with Huh-7 HCV replicon cells (Table 3, 3 days) of over 20000 nM.
Take `Nc1ccc(-c2cnc3nc(N)nc(N4CCOCC4)c3n2)cc1` [Example 231]: the EC50 on HCV replicon (setting [3]) was in the range of 300 to 1000 nM. Also, the CC50 with Huh-7 HCV replicon cells (Table 3, 3 days) is over 20000 nM.
The like results for `CCC(C)Nc1nc(N)nc2ncc(-c3ccc(OC)c(OC)c3)nc12` (centres unmarked) [Example 234] were, in that order, 300 to 1000 nM and over 20000 nM.
In the data set on HCV replicon (Hepatitis C virus, Huh-7, 72 h), `CCOc1nc(NCc2ccc(F)cc2)nc2ncc(-c3ccc(F)cc3)nc12` [Example C] returned an EC50 of under 300 nM. Further, in data set [1] (Table 4), the CC50 at 3 days was over 20000 nM.
Taken in the same sequence, the figures for `NS(=O)(=O)c1ccc(CNc2nc(NCC(F)(F)F)c3nc(-c4ccc(F)cc4)cnc3n2)cc1` [Example D, 4-{[6-(4-fluoro-phenyl)-4-(2,2,2-trifluoro-ethylamino)-pteridin-2-ylamino]-methyl}-benzenesulfonamide] were under 300 nM and over 20000 nM.
Turning to `Fc1ccc(CNc2nc(NCC(F)(F)F)c3nc(-c4ccc(F)cc4)cnc3n2)cc1` [Example E, N2-(4-Fluoro-benzyl)-6-(4-fluoro-phenyl)-N4-(2,2,2-trifluoro-ethyl)-pteridine-2,4-diamine], the EC50 with HCV replicon (setting [4]) was under 300 nM. In addition, the CC50 at 3 days in data set [1] (Table 4) was under 10000 nM.
Consider `CC(Nc1nc(NCC(F)(F)F)c2nc(-c3ccc(F)cc3)cnc2n1)c1ccc(S(N)(=O)=O)cc1` (centres unmarked) [Example F, 4-{1-[6-(4-Fluoro-phenyl)-4-(2,2,2-trifluoro-ethylamino)-pteridin-2-ylamino]-ethyl}-benzenesulfonamide], for which the EC50 in the data set on HCV replicon (setting [4]) is under 300 nM. This molecule also came in with a CC50 at 3 days in data set [1] (Table 4) of under 10000 nM.
Take `CCOc1nc(NCc2ccc(S(N)(=O)=O)cc2)nc2ncc(-c3ccc(F)cc3)nc12` [Example G, 4-{[4-Ethoxy-6-(4-fluoro-phenyl)-pteridin-2-ylamino]-methyl}-benzenesulfonamide]: in the data set with HCV replicon (setting [4]), the EC50 was under 300 nM. The molecule also returned a CC50 at 3 days in data set [1] (Table 4) of over 20000 nM.
In the data set on HCV replicon (Hepatitis C virus, Huh-7, 72 h), `NS(=O)(=O)c1ccc(CNc2nc(NCC(F)(F)F)c3nc(-c4ccc(C(=O)NC5CC5)cc4)cnc3n2)cc1` [Example H, N-Cyclopropyl-4-[2-(4-sulfamoyl-benzylamino)-4-(2,2,2-trifluoro-ethylamino)-pteridin-6-yl]-benzamide] registered an EC50 of 300 to 1000 nM. The molecule further had a CC50 at 3 days in data set [1] (Table 4) of over 20000 nM.
The like results for `NS(=O)(=O)c1ccc(CNc2nc(NCC(F)(F)F)c3nc(-c4ccc(F)c(Cl)c4)cnc3n2)cc1` [Example I, 4-{[6-(3-Chloro-4-fluoro-phenyl)-4-(2,2,2-trifluoro-ethylamino)-pteridin-2-ylamino]-methyl}-benzenesulfonamide] were, in that order, 300 to 1000 nM and 10000 to 20000 nM.
